biological target: T1, NK-1 receptor (Homo sapiens, UniProt P25103); assay: NK-1 Receptor Binding Assay (125I-labeled substance P, IM9 cells); details: @ 1 μM
T1 construct: endogenous in cells; host or cells: IM9 cells (human cell line), whole cells
Experimental: (§1) The biological activity of the compounds of the present invention was evaluated employing an initial screening assay which rapidly and accurately measured the binding of the tested compound to known NK-1 and NK-2 receptor sites. Assays useful for evaluating tachykinin receptor antagonists are well known in the art.
NK-1 Receptor Binding Assay
Radioreceptor binding assays were performed using a derivative of a previously published protocol.
The IM9 cell line is a well-characterized and readily available human cell line.
The reaction was terminated by filtration through a glass fiber filter harvesting system using filters previously soaked for 20 minutes in 0.1% polyethylenimine. Specific binding of labeled substance P was determined in the presence of 20 nM unlabeled ligand.

T1 sequence (P25103 whole entry): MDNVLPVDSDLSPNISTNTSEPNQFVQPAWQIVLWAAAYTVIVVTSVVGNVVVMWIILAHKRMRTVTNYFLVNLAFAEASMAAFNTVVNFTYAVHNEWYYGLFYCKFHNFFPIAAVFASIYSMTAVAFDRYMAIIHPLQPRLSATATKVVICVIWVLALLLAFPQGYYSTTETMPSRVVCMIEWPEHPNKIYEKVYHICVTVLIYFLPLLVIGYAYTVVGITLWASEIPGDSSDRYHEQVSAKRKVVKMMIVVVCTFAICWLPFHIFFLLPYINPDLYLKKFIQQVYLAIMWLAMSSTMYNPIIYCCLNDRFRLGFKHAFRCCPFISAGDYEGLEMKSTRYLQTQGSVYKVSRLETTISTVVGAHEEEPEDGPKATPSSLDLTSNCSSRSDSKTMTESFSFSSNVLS

NK-1 percent inhibition of binding [% @]	Compound
14	COc1ccccc1CN(CC(C)(Cc1c[nH]c2ccccc12)NC(=O)CBr)C(=O)OC(C)(C)C (centres unmarked) [Example 134]
16	COc1ccccc1CN(C[C@H](Cc1c[nH]c2ccccc12)NC(=O)OCc1ccccc1)C(C)=O [Example 93]

Compound	NK-1 percent inhibition of binding [% @]
COc1ccccc1CNCC(Cc1c[nH]c2ccccc12)NC(=O)CN1CCN(c2ccccc2)CC1 (centres unmarked) [Example 6]	62

same assay, conditions: @ 1 μM; read-out: NK-1 percent inhibition of binding

inhibition at 1 µM [%]	Compound
45	NCC(Cc1c[nH]c2ccccc12)NC(=O)CN1CCN(c2ccccc2)CC1 (centres unmarked) [Example 150, 1-amino-3-(1H-indol-3-yl)-2-[N-(2-((4-phenyl)piperazin-1-yl)acetyl)amino]propane]

same assay, conditions: @ 5 μM

NK-1 percent inhibition of binding [% @]	Compound
46	NCC(NC(c1ccccc1)(c1ccccc1)c1ccccc1)c1ccc(Cl)c(Cl)c1 (centres unmarked) [Example 172]

same assay, conditions: inhibits fifty percent of binding of 125I-substance P to IM9 cells

IC50 [nM]	Compound
36	O=C(CN1CCN(c2ccccc2)CC1)NC(CNCc1ccccc1Cl)Cc1c[nH]c2ccccc12 (centres unmarked) [Example 2, 1-[N-(2-chlorobenzyl)amino]-3-(1H-indol-3-yl)-2-[N-(2-((4-phenyl)piperazin-1-yl)acetyl)amino]propane]
15.4	COc1ccccc1CN(CC(Cc1c[nH]c2c(C)cccc12)NC(=O)CN1CCN(c2ccccc2)CC1)C(C)=O (centres unmarked) [Example 115]
8.5	COc1ccccc1CN(CC(Cc1c[nH]c2ccc(Br)cc12)NC(=O)CN1CCC(N2CCCCC2)CC1)C(C)=O (centres unmarked) [Example 129]
2500	COc1ccccc1CNCC(Cc1c[nH]c2ccc(Br)cc12)NC(=O)CN1CCC(N2CCCCC2)CC1 (centres unmarked) [Example 120]
550	COc1ccccc1CNCC(Cc1c[nH]c2ccc(OCc3ccccc3)cc12)NC(=O)CN1CCC(N2CCCCC2)CC1 (centres unmarked) [Example 122]
850	COc1ccc2[nH]cc(CC(CNCc3ccccc3OC)NC(=O)CN3CCC(N4CCCCC4)CC3)c2c1 (centres unmarked) [Example 121]
4.2	COc1ccccc1CN(CC(C)(Cc1c[nH]c2ccccc12)NC(=O)CN1CCC(N2CCCCC2)CC1)C(C)=O (centres unmarked) [Example 132]
270	COc1ccccc1CNCC(Cc1c[nH]c2ccc(OCc3ccccc3)cc12)NC(=O)CN1CCN(c2ccccc2)CC1 (centres unmarked) [Example 112]
33	COc1ccc2[nH]cc(CC(CN(Cc3ccccc3OC)C(C)=O)NC(=O)CN3CCN(c4ccccc4)CC3)c2c1 (centres unmarked) [Example 117]
65	COc1ccccc1CN(CC(Cc1c[nH]c2ccccc12)NC(=O)CCc1ccccc1)C(C)=O (centres unmarked) [Example 90]
11.6	COc1ccccc1CN(CC(C)(Cc1c[nH]c2ccccc12)NC(=O)CN1CCN(c2ccccc2)CC1)C(C)=O (centres unmarked) [Example 133]
1.3	CC(=O)N(Cc1ccccc1Cl)CC(Cc1c[nH]c2ccccc12)NC(=O)CN1CCN(c2ccccc2)CC1 (centres unmarked) [Example 13]
7.9	COc1ccccc1CN(CC(Cc1csc2ccccc12)NC(=O)CN1CCN(c2ccccc2)CC1)C(C)=O (centres unmarked) [Example 143]
1.2	COc1ccccc1CN(CC(Cc1csc2ccccc12)NC(=O)CN1CCC(N2CCCCC2)CC1)C(C)=O (centres unmarked) [Example 149]
97.2	COc1ccccc1CN(CC(Cc1c[nH]c2ccccc12)NC(=O)OCc1ccccc1)C(C)=O (centres unmarked) [Example 92]
0.77	CC(=O)N(Cc1ccccc1Cl)CC(Cc1c[nH]c2ccccc12)NC(=O)CN1CCN(C2CCCCC2)CC1 (centres unmarked) [Example 87]
139	CCCCN(CC(Cc1c[nH]c2ccccc12)NC(=O)CN1CCN(c2ccccc2)CC1)C(C)=O (centres unmarked) [Example 39]
150	COc1ccccc1CN(CC(Cc1c[nH]c2ccccc12)NC(=O)CSc1ccccc1)C(C)=O (centres unmarked) [Example 57]

IC50 [nM]	Compound
34.4	COc1ccccc1CN(C[C@@H](Cc1c[nH]c2ccccc12)NC(=O)CCC(=O)c1ccccc1)C(C)=O [Example 96]
0.24	CC(=O)N(Cc1ccccc1Cl)CC(Cc1c[nH]c2ccccc12)NC(=O)CN1CCC(N2CCCCC2)CC1 (centres unmarked) [Example 48]
3000	COc1ccccc1CN(CC(Cc1c[nH]c2ccccc12)NC(=O)CCc1ccccc1)C(C)=O (centres unmarked) [Example 91]
67	COc1ccccc1CN(CC(Cc1c[nH]c2ccc(OCc3ccccc3)cc12)NC(=O)CN1CCC(N2CCCCC2)CC1)C(C)=O (centres unmarked) [Example 131]
71	COc1ccccc1CN(CC(Cc1c[nH]c2ccccc12)NC(=O)CBr)C(C)=O (centres unmarked) [Example 55]
19	COc1ccc2[nH]cc(CC(CN(Cc3ccccc3OC)C(C)=O)NC(=O)CN3CCC(N4CCCCC4)CC3)c2c1 (centres unmarked) [Example 130]
0.99	COc1ccccc1CN(CC(Cc1c[nH]c2ccccc12)NC(=O)CN1CCN(C(C)C)CC1)C(C)=O (centres unmarked) [Example 73]
230	COc1cccc(CNCC(Cc2c[nH]c3ccccc23)NC(=O)CN2CCN(c3ccccc3)CC2)c1 (centres unmarked) [Example 7]
29	O=C(CN1CCN(c2ccccc2)CC1)NC(CNCc1ccccc1C(F)(F)F)Cc1c[nH]c2ccccc12 (centres unmarked) [Example 3]
310	COc1ccccc1CN(CC(Cc1c[nH]c2ccc(OCc3ccccc3)cc12)NC(=O)CN1CCN(c2ccccc2)CC1)C(C)=O (centres unmarked) [Example 118]
0.36	CC(=O)N(Cc1ccccc1Cl)CC(Cc1c[nH]c2ccccc12)NC(=O)CN1CCN(C(C)C)CC1 (centres unmarked) [Example 86]
130	COc1ccc(CNCC(Cc2c[nH]c3ccccc23)NC(=O)CN2CCN(c3ccccc3)CC2)cc1 (centres unmarked) [Example 8]
1300	COc1ccccc1CN(C[C@H](Cc1c[nH]c2ccccc12)NC(=O)CCC(=O)c1ccccc1)C(C)=O [Example 97]
62	COc1ccccc1CNC[C@@H](Cc1c[nH]c2ccccc12)NC(=O)CN1CCN(c2ccccc2)CC1 [Example 5]
0.7	COc1ccccc1CN(CC(Cc1c[nH]c2cc(F)ccc12)NC(=O)CN1CCC(N2CCCCC2)CC1)C(C)=O (centres unmarked) [Example 131a]
135	CC(=O)N(Cc1ccccc1Cl)CC(Cc1c[nH]c2ccccc12)NC(=O)CN1CCC(N2CCCCC2)CC1 (centres unmarked) [Example 49]
1.1	COc1ccccc1CN(CC(Cc1c[nH]c2c(C)cccc12)NC(=O)CN1CCC(N2CCCCC2)CC1)C(C)=O (centres unmarked) [Example 128]
2.1	CC(=O)N(Cc1ccccc1C(F)(F)F)CC(Cc1c[nH]c2ccccc12)NC(=O)CN1CCN(c2ccccc2)CC1 (centres unmarked) [Example 15]

biological target: T2, human NK-2 receptor (Homo sapiens, UniProt P21452); assay: NK-2 Receptor Binding Assay ([125I]iodohistidyl-neurokinin A, CHO-hNK-2R membranes); details: @ 10 μM
T2 construct: expressed in transfected cells; host or cells: CHO-hNK-2R cells (CHO-derived), membrane preparation
T2 sequence (P21452 1-398): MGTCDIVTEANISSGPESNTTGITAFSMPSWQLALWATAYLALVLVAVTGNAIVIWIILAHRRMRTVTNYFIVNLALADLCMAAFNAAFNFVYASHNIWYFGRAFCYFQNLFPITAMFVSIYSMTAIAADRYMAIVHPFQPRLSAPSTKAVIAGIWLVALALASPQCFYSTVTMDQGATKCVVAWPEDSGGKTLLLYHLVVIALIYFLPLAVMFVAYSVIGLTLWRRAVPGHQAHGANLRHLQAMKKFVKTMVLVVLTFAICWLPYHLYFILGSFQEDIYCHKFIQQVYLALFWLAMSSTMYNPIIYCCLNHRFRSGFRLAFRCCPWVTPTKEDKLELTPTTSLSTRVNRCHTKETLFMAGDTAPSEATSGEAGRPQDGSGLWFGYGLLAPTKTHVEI
Experimental: as §1, with “art. See. e.g., J. Jukic, et al., Life Sciences, 49:1463-1469 (1991); N. Kucharczyk, et al., Journal of Medicinal Chemistry, 36:1654-1661 (1993); N. Rouissi, et al., Biochemical and Biophysical Research Communications, 176:894-901 (1991).” for “art.”
NK-2 Receptor Binding Assay
The CHO-hNK-2R cells, a CHO-derived cell line transformed with the human NK-2 receptor, expressing about 400,000 such receptors per cell, were grown in 75 cm^2 flasks or roller bottles in minimal essential medium (alpha modification) with 10% fetal bovine serum. The gene sequence of the human NK-2 receptor is given in N. P. Gerard, et al., Journal of Biological Chemistry, 265:20455-20462 (1990).
For preparation of membranes, 30 confluent roller bottle cultures were dissociated by washing each roller bottle with 10 ml of Dulbecco's phosphate buffered saline (PBS) without calcium and magnesium, followed by addition of 10 ml of enzyme-free cell dissociation solution (PBS-based, from Specialty Media, Inc.). After an additional 15 minutes, the dissociated cells were pooled and centrifuged at 1,000 RPM for 10 minutes in a clinical centrifuge. Membranes were prepared by homogenization of the cell pellets in 300 ml 50 mM Tris buffer, pH 7.4 with a Tekma® homogenizer for 10-15 seconds, followed by centrifugation at 12,000 RPM (20,000×g) for 30 minutes using a Beckman JA-14® rotor. The pellets were washed once using the above procedure. and the final pellets were resuspended in 100-120 ml 50 mM Tris buffer, pH 7.4, and 4 ml aliquots stored frozen at −70° C. The protein concentration of this preparation was 2 mg/ml.
For the receptor binding assay, one 4-ml aliquot of the CHO-hNK-2R membrane preparation was suspended in 40 ml of assay buffer containing 50 mM Tris, pH 7.4, 3 mM manganese chloride, 0.02% bovine serum albumin (BSA) and 4 μg/ml chymostatin. A 200 μl volume of the homogenate (40 μg protein) was used per sample. The radioactive ligand was [^125I]iodohistidyl-neurokinin A (New England Nuclear, NEX-252), 2200 Ci/mmol. The ligand was prepared in assay buffer at 20 nCi per 100 μl; the final concentration in the assay was 20 pM. Non-specific binding was determined using 1 μM eledoisin. Ten concentrations of eledoisin from 0.1 to 1000 nM were used for a standard concentration-response curve.
All samples and standards were added to the incubation in 10 μl dimethylsulfoxide (DMSO) for screening (single dose) or in 5 μl DMSO for IC50 determinations. The order of additions for incubation was 190 or 195 μl assay buffer, 200 μl homogenate, 10 or 5 μl sample in DMSO, 100 μl radioactive ligand. The samples were incubated 1 hr at room temperature and then filtered on a 48 well Brandel cell harvester through GF/B filters which had been presoaked for two hours in 50 mM Tris buffer, pH 7.7, containing 0.5% BSA. The filter was washed 3 times with approximately 3 ml of cold 50 mm Tris buffer, pH 7.7. The filter circles were then punched into 12×75 mm polystyrene tubes and counted in a gamma counter.

NK-2 percent inhibition of binding [% @]	Compound
44	O=C(NCC(Cc1ccccc1)NC(=O)c1ccccc1)c1ccccc1 (centres unmarked) [Example 163]

same assay, conditions: inhibits fifty percent of binding of [125I]iodohistidyl-neurokinin A to CHO-hNK-2R membranes

IC50 [nM]	Compound
1600	COc1ccccc1CN(CC(Cc1c[nH]c2ccccc12)NC(=O)CN1CCN(c2ccccc2)CC1)C(C)=O (racemic) [Example 17]
3400	COc1ccccc1CN(CC(Cc1c[nH]c2ccccc12)NC(=O)CN1CCC(N2CCCCC2)CC1)C(C)=O (racemic) [Example 50]

From US6869957B1, “Non-peptide tachykinin receptor antagonists” (Eli Lilly and Company, priority 1993, dated 2005)
